In US20230404929A1, “Intradermal Delivery of Extracellular Vesicle-Encapsulated Curcumin Using Dissolvable Microneedle Arrays” (priority 2020, published 2023):

How the values were obtained:
[1] = in vitro stability of curcumin in phosphate-buffered saline at 37° C.; assay type: physicochemical
[2] = system: psoriasis-like inflammation; test: imiquimod psoriasis-like skin inflammation in mice; assay type: in vivo; settings: skin cross-section
From the text: The efficacy of dMNA-delivered CA-EVs in simultaneously blocking and reversing inflammation was studied. The treatments included topical, intradermal, and dMNA application of CA-EVs, naïve EVs, and naked curcumin.

Question: What does the source list for `COc1cc(/C=C/C(=O)CC(=O)/C=C/c2ccc(O)c(OC)c2)ccc1O` [naked curcumin, curcumin]?
Answer: curcumin remaining stable ([1]; 3 hours): 5%; degradation of curcumin over time ([1]; seven-day study): degraded entirely within one day; therapeutic effect on imiquimod-induced skin inflammation [2]: negligible effect
